From patent US6943179B2, “Biurethane derivatives” (Merck Patent GmbH, priority 2001, dated 2005)

What was measured:
TF/FVIIa = molecular target: T1, TF/FVIIa (Homo sapiens, UniProt P08709); experiment: TF/FVIIa inhibition (TF/FVIIa-IC50); type: biochemical
T1 construct: Coagulation factor VIIa initiates the extrinsic part of the coagulation cascade
Source text: The inhibition of factor VIIa by the compounds according to the invention and the measurement of the anticoagulant and antithrombotic activity can be determined by conventional in-vitro or in-vivo methods. A conventional method for the measurement of the inhibition of factor VIIa is described, for example, by H. F. Ronning et al. in Thrombosis Research 1996, 84, 73-81.

FXa = FXa (Homo sapiens, UniProt P00742); experiment: Factor Xa inhibition (FXa-IC50); type: biochemical
Source text: The inhibition of factor Xa by the compounds according to the invention and the measurement of the anticoagulant and antithrombotic activity can be determined by conventional in-vitro or in-vivo methods. A suitable method is described, for example, by J. Hauptmann et al. in Thrombosis and Haemostasis 1990, 63, 220-223.
The inhibition of factor Xa can be measured, for example, by the method of T. Hara et al. in Thromb. Haemostas. 1994, 71, 314-319.

T1 sequence (P08709 213-466 limits assumed): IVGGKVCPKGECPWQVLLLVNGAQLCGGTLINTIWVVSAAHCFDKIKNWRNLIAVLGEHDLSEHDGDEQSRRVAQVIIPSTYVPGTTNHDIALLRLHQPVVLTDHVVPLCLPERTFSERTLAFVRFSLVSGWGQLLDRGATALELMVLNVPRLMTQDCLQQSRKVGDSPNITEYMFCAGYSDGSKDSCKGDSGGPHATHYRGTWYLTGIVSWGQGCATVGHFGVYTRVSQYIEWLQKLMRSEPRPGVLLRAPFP
T1 sequence (P08709 61-212 limits assumed): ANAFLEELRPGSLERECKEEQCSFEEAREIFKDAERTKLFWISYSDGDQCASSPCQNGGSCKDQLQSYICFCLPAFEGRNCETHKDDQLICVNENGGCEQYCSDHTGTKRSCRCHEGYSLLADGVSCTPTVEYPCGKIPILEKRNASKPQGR
T1 sequence (P13726 33-295 partner): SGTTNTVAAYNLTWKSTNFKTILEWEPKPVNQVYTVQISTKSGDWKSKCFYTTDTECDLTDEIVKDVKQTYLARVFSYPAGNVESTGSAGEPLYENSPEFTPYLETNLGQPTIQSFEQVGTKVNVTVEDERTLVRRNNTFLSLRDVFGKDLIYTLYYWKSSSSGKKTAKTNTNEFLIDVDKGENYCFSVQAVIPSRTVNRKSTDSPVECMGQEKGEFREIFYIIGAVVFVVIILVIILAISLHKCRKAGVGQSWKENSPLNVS
Sequence of FXa (P00742 235-488 limits assumed): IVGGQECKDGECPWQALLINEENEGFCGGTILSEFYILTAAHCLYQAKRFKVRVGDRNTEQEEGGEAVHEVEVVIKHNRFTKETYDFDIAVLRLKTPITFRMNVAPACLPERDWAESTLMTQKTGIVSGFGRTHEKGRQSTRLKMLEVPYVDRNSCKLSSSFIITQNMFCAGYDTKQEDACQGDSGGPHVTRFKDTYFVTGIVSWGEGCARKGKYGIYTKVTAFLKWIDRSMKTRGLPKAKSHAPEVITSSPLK
Sequence of FXa (P00742 41-179 limits assumed): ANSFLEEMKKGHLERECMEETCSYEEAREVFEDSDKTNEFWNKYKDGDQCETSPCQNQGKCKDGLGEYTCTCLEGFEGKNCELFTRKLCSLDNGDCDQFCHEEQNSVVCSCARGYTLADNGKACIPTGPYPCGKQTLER

Row | SMILES | melting point | IC50 (TF/FVIIa) | IC50 (FXa)
1 | O=C(Nc1ccc(Cl)cc1)NN(C(=O)Nc1ccc(N2CCCCC2=O)cc1)c1ccccc1 [No. 1, N-(4-Chlorophenylaminocarbonyl)-N′-[4-(2-oxo-1-piperidyl)phenylaminocarbonyl]-N′-phenylhydrazine] | 165 to 170 °C (dec.) | 91 nM | 180 nM
2 | O=C(Nc1ccc(Cl)cc1)NN(C(=O)Nc1ccc(N2CCCCC2=O)cc1)c1ccc(Cl)cc1 [compound 2] | 170 to 175 °C | 340 nM | 670 nM
3 | CS(=O)(=O)c1ccccc1-c1ccc(NC(=O)N(NC(=O)Nc2ccc(Cl)cc2)c2ccccc2)cc1 [compound 3] | > 250 °C | 190 nM | 390 nM
